Data from patent US20240368121A1, “ESTROGEN RECEPTOR DEGRADERS, PHARMACEUTICAL COMPOSITIONS THEREOF, AND THEIR THERAPEUTIC APPLICATIONS” (BioTheryX, Inc., priority 2021, published 2024).

Columns and labels:
MCF7 cells = assay: Cell viability assay ([…]-GLO, 6-day treatment); assay type: cell-based; conditions: Homo sapiens, MCF7, 144 h; MCF-7 cells, 6 days, CTG; read-out: Inhibition of Cancerous Cells IC50 MCF-7
Procedure: A compound provided herein was evaluated for its anticancer activity in MCF7 and T47D cells. MCF7 and T47D cells were cultured at 37° C. in a humidified 5% C02 environment in MEM or RPMI, supplemented with 10% FBS with insulin, respectively. The cells were plated in 384-well microplates at a density of 1,000 cells per well in their respective maintenance media. The cells were treated with the compound by a 10-point dose response curve for 6 days, during which, the medium and compound were refreshed once. After the 6-day treatment, the cell viability was assessed using […]-GLO (CTG) reagent. Luminescence was measured with a microplate reader.

ERα = target: T1, ERα (Homo sapiens, UniProt P03372); assay: Protein degradation assay: ERα in MCF-7 cells via western blot; assay type: cell-based; conditions: 6 h; for ERα Protein Degradation 1 nM: 1 nM compound; for ERα Protein Degradation 10 nM: 10 nM compound; for ERα Protein Degradation 100 nM: 100 nM compound
T1 construct: degrading an ERα in MCF-7 cells via a western blot; endogenous in cells; host or cells: MCF-7
T1 sequence (P03372 1-595): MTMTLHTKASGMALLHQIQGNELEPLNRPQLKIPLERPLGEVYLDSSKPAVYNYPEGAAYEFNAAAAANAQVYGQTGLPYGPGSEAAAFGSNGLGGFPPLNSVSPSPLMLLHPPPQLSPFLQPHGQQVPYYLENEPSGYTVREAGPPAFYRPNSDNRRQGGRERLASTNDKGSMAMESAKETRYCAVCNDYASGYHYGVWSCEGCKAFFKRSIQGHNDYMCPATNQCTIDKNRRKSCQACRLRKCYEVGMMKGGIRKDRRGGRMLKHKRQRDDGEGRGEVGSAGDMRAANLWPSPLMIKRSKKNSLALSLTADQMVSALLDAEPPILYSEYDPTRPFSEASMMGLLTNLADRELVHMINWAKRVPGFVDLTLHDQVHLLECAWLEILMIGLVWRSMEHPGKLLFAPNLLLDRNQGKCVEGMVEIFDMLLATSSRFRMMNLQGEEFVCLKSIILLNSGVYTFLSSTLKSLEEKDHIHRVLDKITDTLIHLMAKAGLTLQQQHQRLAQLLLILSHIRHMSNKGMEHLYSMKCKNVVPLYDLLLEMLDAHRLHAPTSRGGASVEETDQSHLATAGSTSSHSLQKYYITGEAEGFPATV
Procedure: A compound provided herein was assessed for its activity in degrading an ERα in MCF-7 cells via a western blot. The MCF7 cells were cultured at 37° C. in a humidified 5% C02 environment in MEM supplemented with 10% FBS with insulin. The cells were seeded in 12-well plates at a density of 300,000 cells per well in maintenance media. Cells were treated with the compound at predetermined concentrations (e.g., 1 nM, 10 nM, 100 nM, and 1 μM) for 6 h. The cells were then washed in PBS and the whole cells were lysed in a cell lysis buffer and incubated for 15 minutes on ice. Cell debris was removed by high-speed centrifugation and the cleared whole cell lysates were prepared for further analysis by a western blot. The whole cell protein extracts were separated on SDS-polyacrylamide gels, transferred to nitrocellulose membranes, and probed with primary antibodies, including anti-ERα antibody and GAPDH antibody for loading control. The membranes were subsequently washed and probed with secondary antibodies for chemiluminescence, followed by imaging on a BIORAD CHEMIDOC Imaging System. The results are summarized in Table 2, where “A” represents a percentage degradation value of no less than 50%; “B” represents a percentage degradation value of less than 50% and no less than 25%; “C” represents a percentage degradation value of less than 25% and no less than 10%; and “D” represents a percentage degradation value of less than 10%.

SMILES	IC50 (MCF7 cells)	ERα Protein Degradation 1 nM (ERα)	ERα Protein Degradation 10 nM (ERα)	ERα Protein Degradation 100 nM (ERα)
Cc1c(-c2ccc(O)cc2)n(Cc2ccc(OCCCCN3CCN(C(=O)COc4cccc(N5CCC(=O)NC5=O)c4)CC3)cc2)c2ccc(O)cc12 [Compound E26, 1-(3-(2-(4-(4-(4-((5-Hydroxy-2-(4-hydroxyphenyl)-3-methyl-1H-indol-1-yl)-methyl)phenoxy)butyl)piperazin-1-yl)-2-oxoethoxy)phenyl)dihydropyrimidine-2,4(1H,3H)-dione]	3.8 nM	D (a percentage degradation value of less than 10%)	D (a percentage degradation value of less than 10%)	D (a percentage degradation value of less than 10%)
Cn1nc(C2CCC(=O)NC2=O)c2ccc(N3CCN(CC4CCN(c5ccc([C@@H]6c7ccc(O)cc7CC[C@@H]6c6ccccc6)cc5)CC4)CC3)cc21 (stereo partly drawn) [Compound B25, 3-(6-(4-((1-(4-((1R,2S)-6-Hydroxy-2-phenyl-1,2,3,4-tetrahydronaphthalen-1-yl)-phenyl)piperidin-4-yl)methyl)piperazin-1-yl)-1-methyl-1H-indazol-3-yl)piperidine-2,6-dione]	1.2 nM	C (a percentage degradation value of less than 25% and no less than 10%)	B (a percentage degradation value of less than 50% and no less than 25%)	D (a percentage degradation value of less than 10%)
O=C1CCC(N2Cc3cc(C4CCN(CCCCOc5ccc([C@H]6c7ccc(O)cc7CC[C@H]6c6ccccc6)cc5)CC4)c(F)cc3C2=O)C(=O)N1 (stereo partly drawn) [Compound A13, 3-(6-Fluoro-5-(1-(4-(4-((1S,2R)-6-hydroxy-2-phenyl-1,2,3,4-tetrahydro-naphthalen-1-yl)phenoxy)butyl)piperidin-4-yl)-1-oxoisoindolin-2-yl)piperidine-2,6-dione]	–	C (a percentage degradation value of less than 25% and no less than 10%)	B (a percentage degradation value of less than 50% and no less than 25%)	C (a percentage degradation value of less than 25% and no less than 10%)
Cn1nc([C@H]2CCC(=O)NC2=O)c2ccc(OCC(=O)N3CCN(CCCCOc4ccc([C@@H]5c6ccc(O)cc6CC[C@@H]5c5ccccc5)cc4)CC3)cc21 [Compound B26, (R)-3-(6-(2-(4-(4-(4-((1R,2S)-6-Hydroxy-2-phenyl-1,2,3,4-tetrahydronaphthalen-1-yl)phenoxy)butyl)piperazin-1-yl)-2-oxoethoxy)-1-methyl-1H-indazol-3-yl)piperidine-2,6-dione]	0.13 nM	–	–	–
Cc1c(-c2ccc(O)cc2)n(Cc2ccc(N3CCC(CN4CCN(c5ccc6c(C7CCC(=O)NC7=O)nn(C)c6c5)CC4)CC3)cc2)c2ccc(O)cc12 (stereo not shown) [Compound E17, 3-(6-(4-((1-(4-((5-Hydroxy-2-(4-hydroxyphenyl)-3-methyl-1H-indol-1-yl)-methyl)phenyl)piperidin-4-yl)methyl)piperazin-1-yl)-1-methyl-1H-indazol-3-yl)piperidine-2,6-dione]	0.8 nM	–	–	–
Cc1c(-c2ccc(O)cc2)n(Cc2ccc(N3CCC(CCN4CCN(c5ccc6c(C7CCC(=O)NC7=O)nn(C)c6c5)CC4)CC3)cc2)c2ccc(O)cc12 (stereo not shown) [Compound E18, 3-(6-(4-(2-(1-(4-((5-Hydroxy-2-(4-hydroxyphenyl)-3-methyl-1H-indol-1-yl)-methyl)phenyl)piperidin-4-yl)ethyl)piperazin-1-yl)-1-methyl-1H-indazol-3-yl)piperidine-2,6-dione]	0.36 nM	–	–	–
CC1(Cc2ccc(OCCCCN3CCN(C(=O)COc4ccc(N5CCC(=O)NC5=O)cc4)CC3)cc2)C(c2ccc(O)cc2)=Nc2ccc(O)cc21 (stereo not shown) [Compound D9, 1-(4-(2-(4-(4-(4-((5-Hydroxy-2-(4-hydroxyphenyl)-3-methyl-3H-indol-3-yl)-methyl)phenoxy)butyl)piperazin-1-yl)-2-oxoethoxy)phenyl)dihydropyrimidine-2,4(1H,3H)-dione]	–	D (a percentage degradation value of less than 10%)	D (a percentage degradation value of less than 10%)	D (a percentage degradation value of less than 10%)
CC1(Cc2ccc(OCCCCN3CCN(c4ccc5c(c4)CN(C4CCC(=O)NC4=O)C5=O)CC3)cc2)C(c2ccc(O)cc2)=Nc2ccc(O)cc21 (stereo not shown) [Compound D2, 3-(5-(4-(4-(4-((5-Hydroxy-2-(4-hydroxyphenyl)-3-methyl-3H-indol-3-yl)-methyl)phenoxy)butyl)piperazin-1-yl)-1-oxoisoindolin-2-yl)piperidine-2,6-dione]	–	D (a percentage degradation value of less than 10%)	D (a percentage degradation value of less than 10%)	D (a percentage degradation value of less than 10%)
O=C1CCC(N2Cc3c(csc3C3CCN(CCCCCCOc4ccc([C@@H]5c6ccc(O)cc6CC[C@@H]5c5ccccc5)cc4)CC3)C2=O)C(=O)N1 (stereo partly drawn) [Compound A18, 3-(1-(1-(6-(4-((1R,2S)-6-Hydroxy-2-phenyl-1,2,3,4-tetrahydronaphthalen-1-yl)-phenoxy)hexyl)piperidin-4-yl)-4-oxo-4H-thieno[3,4-c]pyrrol-5(6H)-yl)piperidine-2,6-dione]	0.28 nM	–	–	–
CC1(Cc2ccc(OCCCCN3CCN(C(=O)COc4cccc5c4CN(C4CCC(=O)NC4=O)C5=O)CC3)cc2)C(c2ccc(O)cc2)=Nc2ccc(O)cc21 (stereo not shown) [Compound D1, 3-(4-(2-(4-(4-(4-((5-hydroxy-2-(4-hydroxyphenyl)-3-methyl-3H-indol-3-yl)-methyl)phenoxy)butyl)piperazin-1-yl)-2-oxoethoxy)-1-oxoisoindolin-2-yl)piperidine-2,6-dione]	–	D (a percentage degradation value of less than 10%)	D (a percentage degradation value of less than 10%)	D (a percentage degradation value of less than 10%)
Cc1c(-c2ccc(O)cc2)n(Cc2ccc(N3CCC(CN4CCN(C(=O)COc5ccc6c(C7CCC(=O)NC7=O)nn(C)c6c5)CC4)CC3)cc2)c2ccc(O)cc12 (stereo not shown) [Compound E15, 3-(6-(2-(4-((1-(4-((5-hydroxy-2-(4-hydroxyphenyl)-3-methyl-1H-indol-1-yl)-methyl)phenyl)piperidin-4-yl)methyl)piperazin-1-yl)-2-oxoethoxy)-1-methyl-1H-indazol-3-yl)-piperidine-2,6-dione]	0.27 nM	–	–	–
O=C1CCC(N2Cc3c(cc(F)cc3C3CCN(CCCCOc4ccc([C@H]5c6ccc(O)cc6CC[C@H]5c5ccccc5)cc4)CC3)C2=O)C(=O)N1 (stereo partly drawn) [Compound A12, 3-(6-Fluoro-4-(1-(4-(4-((1S,2R)-6-hydroxy-2-phenyl-1,2,3,4-tetrahydro-naphthalen-1-yl)phenoxy)butyl)piperidin-4-yl)-1-oxoisoindolin-2-yl)piperidine-2,6-dione]	–	C (a percentage degradation value of less than 25% and no less than 10%)	C (a percentage degradation value of less than 25% and no less than 10%)	C (a percentage degradation value of less than 25% and no less than 10%)
